{"source": "patent US20170281651A1", "about": "“CONCOMITANT ADMINISTRATION OF GLUCOCORTICOID RECEPTOR MODULATORS AND CYP3A OR STEROIDOGENESIS INHIBITORS” (Corcept Therapeutics, Inc., priority 2017, published 2017)", "key": {"[1]": {"assay": "Example 2: effect of a 400 mg single dose of ketoconazole on PK of an 8-day regimen of 300 mg or 600 mg OD mifepristone, moderate fat breakfast", "assay_type": "in vivo, human", "details": "for Cmax / AUC(0-t) / Tmax / half-life: male, human, plasma, oral; for AUC(0-t): read-out: AUCt (AUC0-24 hours, mean); for Tmax: read-out: Tmax (median); for half-life: read-out: T1/2 (mean) (converted)", "description": "This was an open-label study in healthy male subjects. […] The 400 mg single dose of ketoconazole was given to all subjects on day 8.\nMETHODOLOGY: Twelve subjects were enrolled, six in Cohort 1 and 6 in Cohort 2.\nSubjects were discharged on Day 11.\nSubjects were discharged on Day 11. Subjects in both cohorts returned to study center on Day 13 for safety monitoring, collection of the 120-hour PK draw, and completion of the Termination Visit procedures, followed by discharge from the study. To the extent possible, any adverse events deemed study drug-related and that were ongoing at the time of discharge from the study were followed-up to resolution or until a determination was made that the unresolved event was stable.\nDIAGNOSIS AND MAIN […] FOR INCLUSION: Healthy male volunteers between the ages of 18 to 45 years of age with a body mass index (BMI) ranging between 19 and 32 kg/m2 and a weight of at least 60 kg (132 lbs) were enrolled. Subjects had no clinically significant abnormal findings on the physical examination, ECG, blood pressure, heart rate, medical history, or clinical laboratory results during screening. The QTc interval at screening was less than 450 msec.\nDURATION OF TREATMENT: Up to a total of 28 days, including up to 2 weeks screening, dosing on Days 1-8, safety observation, and PK sample collection through Day 13.\nAdditionally, comparisons were made between the PK results of cohort 1 and 2. Pharmacokinetic parameters Cmax, T1/2 and total AUC were calculated for plasma concentrations of ketoconazole following the single dose on Day 8. Descriptive statistics (count, mean, median, standard deviation, minimum, maximum, and % coefficient of variation) were provided. Ketoconazole concentrations were listed and summarized. GM means of Cmax and total AUC were compared for the single dose in this study to the combined data of reported 400 mg single doses of ketoconazole of healthy subjects from the literature."}, "[2]": {"assay": "Examples 4-7: liver function of a patient with excess cortisol switched to reduced mifepristone dose plus ketoconazole", "assay_type": "in vivo, human"}, "[3]": {"details": "C1 Day 8/Day 7 (300 mg/d, with vs without 400 mg Keto)"}, "[4]": {"details": "C2 Day 8/Day 7 (600 mg/d, with vs without 400 mg Keto)"}, "[5]": {"details": "Cohort 1 (300 mg OD), Day 8 with 400 mg ketoconazole relative to Day 7 without"}, "[6]": {"details": "Cohort 2 (600 mg OD), Day 8 with 400 mg ketoconazole vs Day 7"}, "[7]": {"details": "Day 7 C2/C1 (600 vs 300 mg/d, no ketoconazole)"}, "[8]": {"details": "Day 8 C2/C1 (600 vs 300 mg/d, with 400 mg Keto)"}, "[9]": {"details": "Day 8 in the presence of 400 mg ketoconazole"}, "[10]": {"details": "300 mg/d, MIFE 300 mg/d, C1 Day 7, no ketoconazole"}, "[11]": {"details": "600 mg/d, MIFE 600 mg/d, C2 Day 7, no ketoconazole"}, "[12]": {"details": "MIFE 300 mg/d, C1 Day 8, + 400 mg Keto single dose"}, "[13]": {"details": "MIFE 600 mg/d, C2 Day 8, + 400 mg Keto single dose"}}, "note": "Where two headings read alike, the source gives them in different places."}
{"smiles": "CC#C[C@]1(O)CC[C@H]2[C@@H]3CCC4=CC(=O)CCC4=C3[C@@H](c3ccc(N(C)C)cc3)C[C@@]21C", "note": "[mifepristone, 11β-(4-dimethylaminophenyl)-17β-hydroxy-17α-(1-propynyl)-estra-4,9-dien-3-one]", "values": [{"measurement": "Mean Ratio AUCt", "setting": "[1]; [3]", "value": 1.25}, {"measurement": "Mean Ratio Cmax", "setting": "[1]; [3]", "value": 1.19}, {"measurement": "Mean Ratio AUCt", "setting": "[1]; [4]", "value": 1.28}, {"measurement": "Mean Ratio Cmax", "setting": "[1]; [4]", "value": 1.39}, {"measurement": "increase in AUC0-24", "setting": "[1]; [5]", "value": 25, "unit": "%"}, {"measurement": "increase in Cmax", "setting": "[1]; [5]", "value": 20, "unit": "%"}, {"measurement": "increase in AUC0-24", "setting": "[1]; [6]", "value": 28, "unit": "%"}, {"measurement": "increase in Cmax", "setting": "[1]; [6]", "value": 39, "unit": "%"}, {"measurement": "Mean Ratio AUCt", "setting": "[1]; [7]", "value": 1.48}, {"measurement": "Mean Ratio Cmax", "setting": "[1]; [7]", "value": 1.42}, {"measurement": "AUC0-24 greater at 600 mg OD than at 300 mg OD", "setting": "[1]; Day 7 without ketoconazole", "value": 48, "unit": "%"}, {"measurement": "Cmax greater at 600 mg OD than at 300 mg OD", "setting": "[1]; Day 7 without ketoconazole", "value": 42, "unit": "%"}, {"measurement": "Mean Ratio AUCt", "setting": "[1]; [8]", "value": 1.52}, {"measurement": "Mean Ratio Cmax", "setting": "[1]; [8]", "value": 1.65}, {"measurement": "AUC0-24 greater at 600 mg OD than at 300 mg OD", "setting": "[1]; [9]", "value": 52, "unit": "%"}, {"measurement": "Cmax greater at 600 mg OD than at 300 mg OD", "setting": "[1]; [9]", "value": 65, "unit": "%"}, {"measurement": "half-life greater at 600 mg OD than at 300 mg OD", "setting": "[1]; [9]", "value": 13, "unit": "%"}, {"measurement": "Cmax", "setting": "[1]; [10]", "value": 2700, "unit": "ng/mL"}, {"measurement": "AUC(0-t)", "setting": "[1]; [10]", "value": 37700, "unit": "ng·h/mL"}, {"measurement": "Tmax", "setting": "[1]; [10]", "value": 3, "unit": "h"}, {"measurement": "Cmax", "setting": "[1]; [11]", "value": 3820, "unit": "ng/mL"}, {"measurement": "AUC(0-t)", "setting": "[1]; [11]", "value": 54200, "unit": "ng·h/mL"}, {"measurement": "Tmax", "setting": "[1]; [11]", "value": 4, "unit": "h"}, {"measurement": "Cmax", "setting": "[1]; [12]", "value": 3240, "unit": "ng/mL"}, {"measurement": "AUC(0-t)", "setting": "[1]; [12]", "value": 47400, "unit": "ng·h/mL"}, {"measurement": "half-life", "setting": "[1]; [12]", "value": 84.9, "unit": "h"}, {"measurement": "Tmax", "setting": "[1]; [12]", "value": 2.1, "unit": "h"}, {"measurement": "Cmax", "setting": "[1]; [13]", "value": 5260, "unit": "ng/mL"}, {"measurement": "AUC(0-t)", "setting": "[1]; [13]", "value": 69100, "unit": "ng·h/mL"}, {"measurement": "half-life", "setting": "[1]; [13]", "value": 96.2, "unit": "h"}, {"measurement": "Tmax", "setting": "[1]; [13]", "value": 4, "unit": "h"}, {"measurement": "liver function of the patient", "setting": "[2]; daily dose reduced from 600 mg to 300 mg with concomitant ketoconazole", "value": "not significantly compromised"}, {"measurement": "liver function of the patient", "setting": "[2]; daily dose reduced from 900 mg to 600 mg with concomitant ketoconazole", "value": "not significantly compromised"}, {"measurement": "liver function of the patient", "setting": "[2]; daily dose reduced from 1200 mg to 900 mg with concomitant ketoconazole", "value": "not significantly compromised"}, {"measurement": "liver function of the patient", "setting": "[2]; daily dose reduced from 1500 mg to 1200 mg with concomitant ketoconazole", "value": "not significantly compromised"}]}
